In PMC9736157 (Molecules, 2022):
Like-named read-outs stand apart in the source and are kept apart here.

What was measured:
B-RAF (V600E) = target: T1, B-RAF (V600E) (Homo sapiens, UniProt P15056, V600E); test: BRAF^V600E inhibition assay (B-RAF (V600E) Kinase Assay Kit, Kinase-Glo MAX); format: biochemical; settings: isolated BRAF^V600E, ATP 10 μM, 30 °C, 45 min; three experiments in duplicate; read-out: BRAF (V600E) Kinase Activity IC50 (nM ± SEM)
T1 construct: purchased BPS Bioscience
Experimental: In a 96-well plate, the different inhibitor solutions in DMSO were mixed with Buffer, ATP (10 μM) and Raf substrate. […] After a 15 min delay to equilibrate plate temperature, 50 μL of Kinase-Glo Max was added in each well, and the luminescence was measured according to supplier’s instruction. The results, reported as IC50 ± S.E.M., were calculated with GrapPad Prism 7 and derive from three different experiments run in duplicate.

A375 melanoma cell line = test: Antiproliferative activity, CellTiter-Glo, A375; format: cell-based; settings: Homo sapiens, A-375, A375, 72 h
Experimental: Based on the previous preliminary tests, we sought to investigate the ability of synthesized compounds 5–15 and reference 1 in inhibiting the proliferation of BRAF^V600E mutant cancer cells. A first screening was conducted in A375 melanoma cell lines (Table 1, Figure S2). Encorafenib was employed for comparison.
(§1) The ability of compounds 5, 10, 11, 15–selected based on their chemical diversity–to inhibit cell proliferation was then tested both in A375 and in Colo205 cancer cell lines. […] P5B was obtained by joining the BRAF inhibitor BI 882370 to pomalidomide through a five PEG unit spacer (Figure S3). In compound P5B, the linker length was of 17 atoms, the same length of the spacer used to generate our compound 10. A375 and Colo205 cells were treated for 72 h with compounds 5, 10, 11, 15, and P5B, and the antiproliferative activity was measured by a luminescent ATP-based assay, which determines the number of viable cells based on their metabolic activity. […] However, P5B was more efficient in inhibiting tumor cell viability in comparison with the other selected compounds.
(§2) Cell viability was evaluated by means of CellTiter-Glo Luminescent Assay (Promega), which allows users to measure the ATP in the cell supernatant. The assay was performed according to manufacturer’s instructions. In brief, 4.10^3 A375 or Colo205 were seeded into 96-well plates and allowed to adhere at the wall overnight. Cells were treated for 72 h with BRAF inhibitor compounds. Then, 90 µL of the cell culture medium was transferred in a white 96-well plate, to which 10 µL of CellTiter-Glo was added before measurement of luminescence. Luminescence was measured by the SPARK M10 (Tecan, Männedorf, Switzerland) plate reader.

Colo205 cell line = test: Antiproliferative activity, CellTiter-Glo, Colo205; format: cell-based; settings: Homo sapiens, COLO 205; Colo205, 72 h (Figure 6b); read-out: Antiproliferative activity IC50 (nM ± SEM)
Experimental: as §1, §2

[1] = first screening (Table 1), read-out: Antiproliferative Activity IC50 ± SEM
[2] = second set of experiments (Figure 6a), read-out: Antiproliferative activity IC50 (nM ± SEM)

T1 sequence (P15056 whole entry V600E): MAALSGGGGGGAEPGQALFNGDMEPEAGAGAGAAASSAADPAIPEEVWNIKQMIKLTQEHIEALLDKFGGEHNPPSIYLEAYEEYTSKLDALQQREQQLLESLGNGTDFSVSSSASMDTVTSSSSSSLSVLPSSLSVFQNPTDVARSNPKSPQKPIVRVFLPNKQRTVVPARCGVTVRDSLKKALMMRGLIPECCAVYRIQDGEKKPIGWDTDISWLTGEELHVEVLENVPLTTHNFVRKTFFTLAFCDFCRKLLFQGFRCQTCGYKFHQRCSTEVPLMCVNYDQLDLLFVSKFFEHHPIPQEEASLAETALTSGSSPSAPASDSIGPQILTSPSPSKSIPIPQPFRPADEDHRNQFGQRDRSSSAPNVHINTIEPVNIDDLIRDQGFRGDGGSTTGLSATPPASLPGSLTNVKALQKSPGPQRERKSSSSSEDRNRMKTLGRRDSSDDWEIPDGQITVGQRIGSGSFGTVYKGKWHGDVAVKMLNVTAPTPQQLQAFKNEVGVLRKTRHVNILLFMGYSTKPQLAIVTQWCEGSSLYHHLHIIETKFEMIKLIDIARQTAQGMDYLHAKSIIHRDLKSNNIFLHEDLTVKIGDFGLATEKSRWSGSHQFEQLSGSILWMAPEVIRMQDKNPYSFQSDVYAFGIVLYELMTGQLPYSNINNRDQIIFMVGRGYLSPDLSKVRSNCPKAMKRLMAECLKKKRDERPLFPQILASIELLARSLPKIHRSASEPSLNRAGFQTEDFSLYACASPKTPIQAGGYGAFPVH

| IC50 (B-RAF (V600E)) [nM] | IC50 (A375 melanoma cell line; [1]) [nM] | IC50 (A375 melanoma cell line; [2]) [nM] | IC50 (Colo205 cell line) [nM] | Compound |
| --- | --- | --- | --- | --- |
| 61 ± 10 | 2740 ± 71 | 1320 ± 304 | 280 ± 24 | CC(C)n1cc(-c2ccnc(NC[C@H](C)NC(=O)CCCNc3cccc4c3C(=O)N(C3CCC(=O)NC3=O)C4=O)n2)c(-c2cc(Cl)cc(NS(C)(=O)=O)c2F)n1 (stereo partly drawn) [Compound 5, N-((S)-1-((4-(3-(5-chloro-2-fluoro-3-(methylsulfonamido)phenyl)-1-isopropyl-1H-pyrazol-4-yl)pyrimidin-2-yl)amino)propan-2-yl)-4-((2-(2,6-dioxopiperidin-3-yl)-1,3-dioxoisoindolin-4-yl)amino)butanamide] |
| 52 ± 12 | 406.1 ± 2.4 | – | – | CC(C)n1cc(-c2ccnc(NC[C@H](C)NC(=O)CCOCCNc3cccc4c3C(=O)N(C3CCC(=O)NC3=O)C4=O)n2)c(-c2cc(Cl)cc(NS(C)(=O)=O)c2F)n1 (stereo partly drawn) [Compound 6, N-((S)-1-((4-(3-(5-chloro-2-fluoro-3-(methylsulfonamido)phenyl)-1-isopropyl-1H-pyrazol-4-yl)pyrimidin-2-yl)amino)propan-2-yl)-3-(2-((2-(2,6-dioxopiperidin-3-yl)-1,3-dioxoisoindolin-4-yl)amino)ethoxy)propanamide] |
| 66 ± 15 | 520 ± 80.5 | – | – | CC(C)n1cc(-c2ccnc(NC[C@H](C)NC(=O)CCOCCOCCNc3cccc4c3C(=O)N(C3CCC(=O)NC3=O)C4=O)n2)c(-c2cc(Cl)cc(NS(C)(=O)=O)c2F)n1 (stereo partly drawn) [Compound 7, N-((S)-1-((4-(3-(5-chloro-2-fluoro-3-(methylsulfonamido)phenyl)-1-isopropyl-1H-pyrazol-4-yl)pyrimidin-2-yl)amino)propan-2-yl)-3-(2-(2-((2-(2,6-dioxopiperidin-3-yl)-1,3-dioxoisoindolin-4-yl)amino)ethoxy)ethoxy)propanamide] |
| 67 ± 16 | 2000 ± 31.8 | – | – | CC(C)n1cc(-c2ccnc(NC[C@H](C)NC(=O)CCOCCOCCOCCOCCNc3cccc4c3C(=O)N(C3CCC(=O)NC3=O)C4=O)n2)c(-c2cc(Cl)cc(NS(C)(=O)=O)c2F)n1 (stereo partly drawn) [Compound 9, N-((S)-1-((4-(3-(5-chloro-2-fluoro-3-(methylsulfonamido)phenyl)-1-isopropyl-1H-pyrazol-4-yl)pyrimidin-2-yl)amino)propan-2-yl)-1-((2-(2,6-dioxopiperidin-3-yl)-1,3-dioxoisoindolin-4-yl)amino)-3,6,9,12-tetraoxapentadecan-15-amide] |
| 40 ± 4 | 732 ± 16 | – | – | CC(C)n1cc(-c2ccnc(NC[C@H](C)NC(=O)CCOCCOCCn3cc(COCCC(=O)Nc4cccc5c4C(=O)N(C4CCC(=O)NC4=O)C5=O)nn3)n2)c(-c2cc(Cl)cc(NS(C)(=O)=O)c2F)n1 (stereo partly drawn) [Compound 12, N-((S)-1-((4-(3-(5-chloro-2-fluoro-3-(methylsulfonamido)phenyl)-1-isopropyl-1H-pyrazol-4-yl)pyrimidin-2-yl)amino)propan-2-yl)-3-(2-(2-(4-((3-((2-(2,6-dioxopiperidin-3-yl)-1,3-dioxoisoindolin-4-yl)amino)-3-oxopropoxy)methyl)-1H-1,2,3-triazol-1-yl)ethoxy)ethoxy)propanamide] |
| 58 ± 19 | 4100 ± 71.5 | – | – | CC(C)n1cc(-c2ccnc(NC[C@H](C)NC(=O)CCOCCOCCn3cc(COCCOCCNc4cccc5c4C(=O)N(C4CCC(=O)NC4=O)C5=O)nn3)n2)c(-c2cc(Cl)cc(NS(C)(=O)=O)c2F)n1 (stereo partly shown) [Compound 13] |
| 88 ± 17 | 1046 ± 0.75 | – | – | CC(C)n1cc(-c2ccnc(NC[C@H](C)NC(=O)CCOCCOCCOCC(=O)Nc3cccc4c3CN(C3CCC(=O)NC3=O)C4=O)n2)c(-c2cc(Cl)cc(NS(C)(=O)=O)c2F)n1 (stereo partly drawn) [Compound 14, N-((S)-1-((4-(3-(5-chloro-2-fluoro-3-(methylsulfonamido)phenyl)-1-isopropyl-1H-pyrazol-4-yl)pyrimidin-2-yl)amino)propan-2-yl)-3-(2-(2-(2-((2-(2,6-dioxopiperidin-3-yl)-1-oxoisoindolin-4-yl)amino)-2-oxoethoxy)ethoxy)ethoxy)propenamide] |
| 78 ± 9 | 3380 ± 172 | 3830 ± 784 | 1230 ± 543 | Cc1ncsc1-c1ccc(CNC(=O)[C@@H]2C[C@@H](O)CN2C(=O)[C@@H](NC(=O)COCCOCCOCCC(=O)N[C@@H](C)CNc2nccc(-c3cn(C(C)C)nc3-c3cc(Cl)cc(NS(C)(=O)=O)c3F)n2)C(C)(C)C)cc1 [Compound 15, (2S,4R)-1-((2S,17S)-2-(tert-butyl)-18-((4-(3-(5-chloro-2-fluoro-3-(methylsulfonamido)phenyl)-1-isopropyl-1H-pyrazol-4-yl)pyrimidin-2-yl)amino)-17-methyl-4,15-dioxo-6,9,12-trioxa-3,16-diazaoctadecanoyl)-4-hydroxy-N-(4-(4-methylthiazol-5-yl)benzyl)pyrrolidine-2-carboxamide] |
| 80 ± 7 | – | – | – | COCCOCCOCCOCCC(=O)N[C@@H](C)CNc1nccc(-c2cn(C(C)C)nc2-c2cc(Cl)cc(NS(C)(=O)=O)c2F)n1 [Compound 54, (S)-N-(1-((4-(3-(5-chloro-2-fluoro-3-(methylsulfonamido)phenyl)-1-isopropyl-1H-pyrazol-4-yl)pyrimidin-2-yl)amino)propan-2-yl)-2,5,8,11-tetraoxatetradecan-14-amide] |
| – | < 50 | – | – | COC(=O)N[C@@H](C)CNc1nccc(-c2cn(C(C)C)nc2-c2cc(Cl)cc(NS(C)(=O)=O)c2F)n1 [encorafenib (1), encorafenib, reference compound] |
